In PMC8391421, “Identification of Novel Positive Allosteric Modulators of Neurotrophin Receptors for the Treatment of Cognitive Dysfunction” (Cells, 2021):
pEC50: −log10 of the molar value. Entries after “also recorded” stand apart in the source; their conditions may differ.

Columns and labels:
TrkB = target: T1, TrkB (Homo sapiens, UniProt Q16620); test: TrkB PathHunter cell-based assay (U2OS-TrkB/p75)
T1 construct: host or cells: U2OS (human osteosarcoma), co-expressing p75 and SHC-1 fused to the enzyme acceptor
T1 sequence (Q16620 32-822): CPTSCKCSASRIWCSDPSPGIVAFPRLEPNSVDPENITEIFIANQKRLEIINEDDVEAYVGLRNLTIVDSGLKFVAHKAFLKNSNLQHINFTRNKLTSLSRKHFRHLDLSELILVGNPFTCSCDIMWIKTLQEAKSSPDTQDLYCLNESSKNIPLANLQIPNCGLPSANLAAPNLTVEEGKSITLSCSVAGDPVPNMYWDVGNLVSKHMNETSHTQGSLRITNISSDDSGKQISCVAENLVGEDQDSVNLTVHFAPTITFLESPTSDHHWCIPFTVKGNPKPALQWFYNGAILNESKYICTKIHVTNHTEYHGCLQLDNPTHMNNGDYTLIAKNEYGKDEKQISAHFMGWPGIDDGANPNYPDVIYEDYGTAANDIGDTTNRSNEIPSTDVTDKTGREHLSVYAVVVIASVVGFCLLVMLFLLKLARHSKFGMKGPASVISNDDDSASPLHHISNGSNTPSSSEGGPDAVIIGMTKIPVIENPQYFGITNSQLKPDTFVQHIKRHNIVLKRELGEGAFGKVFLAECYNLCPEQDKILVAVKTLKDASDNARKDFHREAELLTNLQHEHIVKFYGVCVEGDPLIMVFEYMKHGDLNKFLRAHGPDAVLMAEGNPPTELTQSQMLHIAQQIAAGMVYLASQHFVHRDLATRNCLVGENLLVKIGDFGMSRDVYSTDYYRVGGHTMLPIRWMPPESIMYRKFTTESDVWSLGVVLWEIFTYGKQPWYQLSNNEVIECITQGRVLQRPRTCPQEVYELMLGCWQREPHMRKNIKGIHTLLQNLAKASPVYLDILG
Procedure: U2OS cells were maintained subconfluent in EMEM supplemented with 10% FBS and penicillin/streptomycin/hygromycin and G418. One day prior to the experiment, 5000 cells of EMEM supplemented with 0.5% horse serum were seeded in each well of a 384-well white plate. The assay was performed as previously described. Briefly, the TrkA or TrkB cell-based PathHunter® assays use enzyme fragment complementation (EFC) technology for the complementation of two β-galactosidase (β-gal) fragments in order to study protein–protein interactions. Upon activation with ligand, TrkA or TrkB are phosphorylated on several tyrosine residues, including tyrosine 490, leading to an interaction with SHC-1. In the PathHunter® assays, the Trk-receptors are fused to an enzyme donor tag, and SHC-1 is fused to a larger part of β-gal called an enzyme acceptor. The interactions between the recombinant enzyme donor, i.e., the Trk-receptor, with an enzyme acceptor, i.e., SHC-1, leads to an active β-gal enzyme. The functional (complemented) β-gal will hydrolyze a substrate to generate a luminescence signal. The generated luminescence was read using an EnVision plate reader from PerkinElmer, Upplands Väsby, Sweden, or an ID5 plate reader from Molecular Devices, Berkshire, RG41 5TS UK. […] Min- and Max-control wells were included on each plate. A compound was considered a hit if the percent activation was more than 50% and if the value was two standard deviations higher than the mean value of all of the samples on the plate. The average activation of all of samples on 10 different 384-well plates was 31%. […] Due to the risk of adverse events with the systemic administration of TrkA agonists, the screen and the re-screen processes were designed to increase the likelihood of identifying the positive modulators of NGF-signaling rather than identifying TrkA agonists. Based on the results of the re-screen, in combination with the physical–chemical properties of the molecules, a collection of hits was used for the EC50 determinations.
Both Toltrazuril and Ponazuril are registered veterinary products prescribed for parasitic infections in animals. […] The cellular response to NGF or BDNF was measured using PathHunter® assays employing β-gal enzyme fragment complementation technology. The activation of Trk-receptors leads to an intracellular interaction between the Trk-receptor and SHC-1 and thereby to the complementation of β-gal, which will render in a functional enzyme. β-gal will hydrolyze a substrate to generate luminescence, which is proportional to the number of activated receptors. […]

C57BL/6J mice = test: Morris water maze; type: in vivo, mouse
Procedure: Male C57BL/6J mice (n = 8/group) from Taconic, Lille Skensved, Denmark, 7–8 weeks of age at arrival, were used in experiments that were predominantly performed as described previously. Vehicle or ACD855 (3 mg/kg; formulated in 20% DMSO in 0.1 M sodium phosphate buffer pH 8.0) was administered daily for the first four days (Day 1–4) through subcutaneous (s.c.) injections (10 mL/kg body weight). During the behavioral training days (Day 5–10), ACD855 or vehicle was administered s.c. 60 min prior to training. Moreover, during the behavioral training days, scopolamine (0.3 mg/kg) or vehicle was administered s.c. 30 min prior to training.

Wistar rats = test: Novel object recognition; type: in vivo, rat; conditions: 1 mg/kg
Procedure: The novel object recognition model was conducted by Suven Life Sciences Ltd. (Hyderabad, India) using male Wistar rats (n = 12/group). This study was performed in compliance with the requirements and in-house animal care and usage policy of the Institutional Animal Ethics Committee (IAEC). The experiment was conducted over a 5-day period. For the first 3 days, ACD855 or vehicle were administered to the animals. On Day 4, the rats were acclimatized to their respective arenas for 20 min and then returned to their home cages for the administration of ACD855 or vehicle (1 h post habituation phase). On Day 5, the rats were administered vehicle or ACD855 1 h prior to trial, donepezil (1 mg/kg) was injected 30 min prior to trial, and scopolamine (1 mg/kg) was injected 20 min prior to trial. 20 min after scopolamine administration, the rats were subjected to the familiarization phase. The experiment was performed as described by Lueptow. The discriminative index for the drug-treated groups was compared to that of the vehicle group by use of the Kruskal–Wallis test. The discriminative index is the ratio of time spent exploring the novel object divided by the sum of the time spent exploring the novel object and a familiar object in the choice trial.

Cc1cc(-n2c(=O)[nH]c(=O)n(C)c2=O)ccc1Oc1ccc(S(=O)(=O)C(F)(F)F)cc1 [ACD855, Toltrazuril-sulfone]
pEC50 (TrkB; PathHunter cell-based assay): 5.49 | TrkB Effect (efficacy) (TrkB; PathHunter cell-based assay): 319% | activation of TrkB-receptor by compound itself (TrkB; without ligand, 100% = 30 ng/mL ligand): 45% | effect of compound by itself on cognitive function (swim latency, Day 1) (C57BL/6J mice; 3 mg/kg s.c., no scopolamine, vs vehicle): seemed to improve cognitive function compared to vehicle; also recorded: improved cognitive function compared to vehicle | effect on scopolamine-induced cognitive impairment (swim latency) (C57BL/6J mice; 3 mg/kg s.c., scopolamine 0.3 mg/kg): significantly blocked; also recorded: completely blocked | retention test (probe trial) (C57BL/6J mice; control vs treated groups): only an improvement trend | swim speed (C57BL/6J mice; control vs treated groups): no significant differences | time with novel object vs familiar object after scopolamine (Wistar rats): spent significantly more time with the novel object
